Each structure is given as a SMILES string.

This passage reports Efficacy results from patent US9725414B2, “Fungicidal N-bicycloalkyl and N-tricycloalkyl pyrazole-4-(thio)carboxamide derivatives” (priority 2011, dated 2017).

One test concerns Pyrenophora teres. Nature of the test: Example E: in vivo preventive test on Pyrenophora teres (barley), DMF/emulsifier preparation. The note with it: 500 ppm of active ingredient, evaluated 7-9 days after inoculation. The procedure, abridged: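 Young barley plants sprayed preventively with compound formulated in DMF/alkylaryl polyglycol ether emulsifier and diluted in water. One day later inoculated with aqueous Pyrenophora teres spore suspension, then held 48 h at 22 °C and 100% relative humidity.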

The subject of the next test is Botrytis cinerea. The test is described as follows: Example O: in vivo protective test on Botrytis cinerea (beans). The note with it: 100 ppm of active ingredient, lesion size 2 days after inoculation. As to the method:
In Vivo Protective Test on Botrytis cinerea (Beans)
Solvent: 24.5 parts by weight of acetone • 24.5 parts by weight of N,N-dimethylacetamide
Emulsifier: 1 part by weight of alkylaryl polyglycol ether
To produce a suitable preparation of active compound, 1 part by weight of active compound is mixed with the stated amounts of solvent and emulsifier, and the concentrate is diluted with water to the desired concentration.
To test for preventive activity, young plants are sprayed with the preparation of active compound. After the spray coating has dried on, 2 small pieces of agar covered with growth of Botrytis cinerea are placed on each leaf. The inoculated plants are placed in a darkened chamber at 20° C. and a relative atmospheric humidity of 100%.
2 days after the inoculation, the size of the lesions on the leaves is evaluated. 0% means an efficacy which corresponds to that of the untreated control, while an efficacy of 100% means that no disease is observed.

Take `Cn1nc(C(F)F)c(C(=O)N(CC2CC3CCC2C3)C2CC2)c1F` (stereo not shown) [Example 71]: the values for the Efficacy in the test with Pyrenophora teres and in the test with Botrytis cinerea were 100% and 97%, respectively.
As to `CC(C1CC2CCC1C2)N(C(=O)c1c(C(F)F)nn(C)c1F)C1CC1` (stereo not shown) [Example 93], the Efficacy with Pyrenophora teres and in the test with Botrytis cinerea was 100% throughout.
